Measurements as given in ChEMBL document CHEMBL1201862, “PubChem BioAssay data set” (2004).
Activity calls are given as the source filed them.

What was measured:
[1] = NIH-3T3 fibroblast cytotoxicity, dose response, cytotoxicity control, cell-based, fluorescence, Alamar Blue, secondary assay (AID 2327); assay type: functional;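 also: NIH-3T3 mouse fibroblasts cultured with fluconazole at 8 µg/mL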
[2] = biological target: Dual specificity protein phosphatase 3 (Homo sapiens, UniProt P51452); assay: VHR1 phosphatase inhibitors, primary screen, biochemical, absorbance, uHTS (AID 1654)
Chain of Dual specificity protein phosphatase 3 (P51452 whole entry): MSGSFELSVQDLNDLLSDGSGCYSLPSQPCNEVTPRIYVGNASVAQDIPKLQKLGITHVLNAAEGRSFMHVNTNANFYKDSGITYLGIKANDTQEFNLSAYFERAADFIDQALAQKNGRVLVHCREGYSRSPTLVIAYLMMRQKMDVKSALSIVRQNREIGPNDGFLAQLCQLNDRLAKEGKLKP

[3] = biological target: Ras and Rab interactor 1/Tyrosine-protein kinase ABL1 (Homo sapiens, UniProt P00519+Q13671); assay type: functional;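 also: biochemical TR-FRET dose-response test measuring inhibition of binding between Rin1 and Abl proteins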
Chain of Ras and Rab interactor 1/Tyrosine-protein kinase ABL1 (P00519 whole entry): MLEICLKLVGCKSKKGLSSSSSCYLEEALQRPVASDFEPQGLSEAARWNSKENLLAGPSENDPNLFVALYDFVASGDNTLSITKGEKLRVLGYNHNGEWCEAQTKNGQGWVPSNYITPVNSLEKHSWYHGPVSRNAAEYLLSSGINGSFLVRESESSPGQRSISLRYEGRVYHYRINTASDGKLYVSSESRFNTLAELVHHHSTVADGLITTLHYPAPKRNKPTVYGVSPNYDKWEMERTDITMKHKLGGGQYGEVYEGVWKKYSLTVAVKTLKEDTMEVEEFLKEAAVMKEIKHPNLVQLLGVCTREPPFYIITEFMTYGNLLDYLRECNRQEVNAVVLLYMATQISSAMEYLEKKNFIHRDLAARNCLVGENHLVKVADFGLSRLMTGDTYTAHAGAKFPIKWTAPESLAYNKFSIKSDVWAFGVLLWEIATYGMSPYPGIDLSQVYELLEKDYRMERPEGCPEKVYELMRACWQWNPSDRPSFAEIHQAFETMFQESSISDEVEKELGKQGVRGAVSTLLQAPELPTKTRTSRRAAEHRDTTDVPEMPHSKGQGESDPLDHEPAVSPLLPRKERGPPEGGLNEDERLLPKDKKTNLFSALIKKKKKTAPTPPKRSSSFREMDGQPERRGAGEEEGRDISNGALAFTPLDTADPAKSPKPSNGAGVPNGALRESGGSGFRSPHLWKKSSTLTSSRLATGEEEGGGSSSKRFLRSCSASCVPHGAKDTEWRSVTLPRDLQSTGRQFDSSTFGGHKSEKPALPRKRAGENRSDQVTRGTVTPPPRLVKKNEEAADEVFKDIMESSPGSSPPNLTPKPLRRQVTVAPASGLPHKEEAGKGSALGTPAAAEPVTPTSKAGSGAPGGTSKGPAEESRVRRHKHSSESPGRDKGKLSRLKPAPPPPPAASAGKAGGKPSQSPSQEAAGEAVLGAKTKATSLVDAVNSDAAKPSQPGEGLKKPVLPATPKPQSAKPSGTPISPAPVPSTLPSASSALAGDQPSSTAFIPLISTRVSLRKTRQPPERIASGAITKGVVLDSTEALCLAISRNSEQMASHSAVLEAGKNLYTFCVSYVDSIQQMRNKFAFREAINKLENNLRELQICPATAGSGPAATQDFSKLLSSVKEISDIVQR
Chain of Ras and Rab interactor 1/Tyrosine-protein kinase ABL1 (Q13671 whole entry): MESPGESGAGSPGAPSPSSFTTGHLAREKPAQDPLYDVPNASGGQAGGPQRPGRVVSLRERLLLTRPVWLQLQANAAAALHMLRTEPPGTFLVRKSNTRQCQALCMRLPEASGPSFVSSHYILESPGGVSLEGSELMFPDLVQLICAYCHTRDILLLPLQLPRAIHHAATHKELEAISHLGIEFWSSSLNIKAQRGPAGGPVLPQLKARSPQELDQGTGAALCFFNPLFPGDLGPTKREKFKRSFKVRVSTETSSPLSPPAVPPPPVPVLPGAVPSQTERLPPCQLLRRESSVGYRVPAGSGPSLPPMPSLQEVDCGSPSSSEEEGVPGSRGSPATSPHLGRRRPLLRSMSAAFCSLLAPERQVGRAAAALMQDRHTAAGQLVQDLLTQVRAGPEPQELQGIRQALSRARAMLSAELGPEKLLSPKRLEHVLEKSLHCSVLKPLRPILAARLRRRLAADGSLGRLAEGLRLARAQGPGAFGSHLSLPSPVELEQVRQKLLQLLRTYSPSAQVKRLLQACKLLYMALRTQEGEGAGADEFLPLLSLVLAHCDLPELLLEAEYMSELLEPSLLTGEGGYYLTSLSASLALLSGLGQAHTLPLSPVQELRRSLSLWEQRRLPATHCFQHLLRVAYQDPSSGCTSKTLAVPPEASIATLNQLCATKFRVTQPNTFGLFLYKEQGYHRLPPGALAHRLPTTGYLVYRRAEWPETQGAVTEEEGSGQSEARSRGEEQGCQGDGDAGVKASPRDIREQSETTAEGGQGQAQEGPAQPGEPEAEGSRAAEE

[4] = biological target: T1, Caspase-3 (Homo sapiens, UniProt P42574); assay type: functional;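 also: Dose-response selectivity test against caspase-3 for candidate inhibitors of sentrin-specific proteases (SENPs)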
T1 sequence (P42574 whole entry): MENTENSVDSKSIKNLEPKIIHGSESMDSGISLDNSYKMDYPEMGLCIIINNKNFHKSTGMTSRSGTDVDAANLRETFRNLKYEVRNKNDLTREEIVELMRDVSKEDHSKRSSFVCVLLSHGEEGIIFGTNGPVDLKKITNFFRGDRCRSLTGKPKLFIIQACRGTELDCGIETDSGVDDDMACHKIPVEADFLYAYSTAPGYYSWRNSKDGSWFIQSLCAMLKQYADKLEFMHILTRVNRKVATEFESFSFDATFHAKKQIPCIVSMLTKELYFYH

[5] = biological target: T2, Heat shock factor protein 1 (Mus musculus, UniProt P38532); assay: inhibition of MG132-induced HSE-luciferase signal, confirmation, cell-based, NIH3T3, luminescence, dose retest (AID 2382); assay type: functional;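 also: NIH3T3 fibroblasts with HSF1-driven luciferase reporter stressed by proteasome inhibitor MG132; luminescence from HSF1-driven luciferase expression after 8 hours of MG132 stress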
T2 sequence (P38532 whole entry): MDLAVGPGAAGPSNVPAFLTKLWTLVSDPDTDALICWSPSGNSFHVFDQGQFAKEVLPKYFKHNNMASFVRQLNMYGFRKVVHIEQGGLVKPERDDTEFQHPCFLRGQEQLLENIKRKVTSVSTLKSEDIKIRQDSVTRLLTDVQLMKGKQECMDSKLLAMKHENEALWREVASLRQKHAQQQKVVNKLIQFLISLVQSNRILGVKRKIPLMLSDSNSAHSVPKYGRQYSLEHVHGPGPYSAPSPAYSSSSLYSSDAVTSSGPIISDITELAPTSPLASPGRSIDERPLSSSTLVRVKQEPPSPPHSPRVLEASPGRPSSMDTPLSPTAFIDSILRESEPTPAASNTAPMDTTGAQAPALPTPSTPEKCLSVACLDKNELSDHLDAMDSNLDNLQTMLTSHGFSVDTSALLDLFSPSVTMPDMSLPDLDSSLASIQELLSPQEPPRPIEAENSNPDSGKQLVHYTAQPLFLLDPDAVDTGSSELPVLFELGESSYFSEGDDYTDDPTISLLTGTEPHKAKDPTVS

[6] = biological target: T3, Cytochrome P450 1A2 (Homo sapiens, UniProt P05177);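 also: PubChem cytochrome P450 panel assay, CYP1A2 panel member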
T3 sequence (P05177 whole entry): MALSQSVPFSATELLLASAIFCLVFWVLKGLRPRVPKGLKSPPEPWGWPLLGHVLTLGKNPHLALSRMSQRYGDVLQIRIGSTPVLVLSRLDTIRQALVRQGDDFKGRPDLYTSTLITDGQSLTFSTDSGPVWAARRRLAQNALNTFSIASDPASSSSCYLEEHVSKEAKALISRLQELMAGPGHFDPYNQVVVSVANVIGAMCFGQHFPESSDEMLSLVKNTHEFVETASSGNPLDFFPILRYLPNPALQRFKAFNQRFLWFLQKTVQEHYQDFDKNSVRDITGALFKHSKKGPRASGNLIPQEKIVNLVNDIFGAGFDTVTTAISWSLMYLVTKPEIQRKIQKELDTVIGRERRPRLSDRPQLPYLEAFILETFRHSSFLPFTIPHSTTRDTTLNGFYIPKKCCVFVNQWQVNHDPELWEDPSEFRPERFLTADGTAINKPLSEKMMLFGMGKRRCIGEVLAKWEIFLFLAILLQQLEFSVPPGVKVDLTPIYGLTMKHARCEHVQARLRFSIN

[7] = biological target: Mitogen-activated protein kinase kinase kinase kinase 4 (Homo sapiens, UniProt O95819); assay type: functional
[8] = biological target: T4, Interleukin-1 receptor-associated kinase 4 (Homo sapiens, UniProt Q9NWZ3); assay type: functional
T4 sequence (Q9NWZ3 whole entry): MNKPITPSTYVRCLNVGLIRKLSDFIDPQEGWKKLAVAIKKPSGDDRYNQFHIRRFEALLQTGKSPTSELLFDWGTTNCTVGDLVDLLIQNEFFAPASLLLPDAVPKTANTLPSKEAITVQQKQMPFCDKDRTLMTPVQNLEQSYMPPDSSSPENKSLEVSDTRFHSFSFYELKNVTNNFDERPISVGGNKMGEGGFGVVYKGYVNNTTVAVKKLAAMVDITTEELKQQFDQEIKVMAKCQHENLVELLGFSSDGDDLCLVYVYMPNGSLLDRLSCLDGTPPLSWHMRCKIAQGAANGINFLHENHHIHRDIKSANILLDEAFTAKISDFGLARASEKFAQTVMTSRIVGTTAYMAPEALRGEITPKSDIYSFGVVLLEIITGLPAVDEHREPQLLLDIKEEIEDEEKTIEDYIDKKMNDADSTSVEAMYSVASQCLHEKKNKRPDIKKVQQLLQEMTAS

[9] = biological target: Misshapen-like kinase 1 (Homo sapiens, UniProt Q8N4C8); assay type: functional;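 also: kinome panel screen with MINK as the panel member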
Chain of Misshapen-like kinase 1 (Q8N4C8 whole entry): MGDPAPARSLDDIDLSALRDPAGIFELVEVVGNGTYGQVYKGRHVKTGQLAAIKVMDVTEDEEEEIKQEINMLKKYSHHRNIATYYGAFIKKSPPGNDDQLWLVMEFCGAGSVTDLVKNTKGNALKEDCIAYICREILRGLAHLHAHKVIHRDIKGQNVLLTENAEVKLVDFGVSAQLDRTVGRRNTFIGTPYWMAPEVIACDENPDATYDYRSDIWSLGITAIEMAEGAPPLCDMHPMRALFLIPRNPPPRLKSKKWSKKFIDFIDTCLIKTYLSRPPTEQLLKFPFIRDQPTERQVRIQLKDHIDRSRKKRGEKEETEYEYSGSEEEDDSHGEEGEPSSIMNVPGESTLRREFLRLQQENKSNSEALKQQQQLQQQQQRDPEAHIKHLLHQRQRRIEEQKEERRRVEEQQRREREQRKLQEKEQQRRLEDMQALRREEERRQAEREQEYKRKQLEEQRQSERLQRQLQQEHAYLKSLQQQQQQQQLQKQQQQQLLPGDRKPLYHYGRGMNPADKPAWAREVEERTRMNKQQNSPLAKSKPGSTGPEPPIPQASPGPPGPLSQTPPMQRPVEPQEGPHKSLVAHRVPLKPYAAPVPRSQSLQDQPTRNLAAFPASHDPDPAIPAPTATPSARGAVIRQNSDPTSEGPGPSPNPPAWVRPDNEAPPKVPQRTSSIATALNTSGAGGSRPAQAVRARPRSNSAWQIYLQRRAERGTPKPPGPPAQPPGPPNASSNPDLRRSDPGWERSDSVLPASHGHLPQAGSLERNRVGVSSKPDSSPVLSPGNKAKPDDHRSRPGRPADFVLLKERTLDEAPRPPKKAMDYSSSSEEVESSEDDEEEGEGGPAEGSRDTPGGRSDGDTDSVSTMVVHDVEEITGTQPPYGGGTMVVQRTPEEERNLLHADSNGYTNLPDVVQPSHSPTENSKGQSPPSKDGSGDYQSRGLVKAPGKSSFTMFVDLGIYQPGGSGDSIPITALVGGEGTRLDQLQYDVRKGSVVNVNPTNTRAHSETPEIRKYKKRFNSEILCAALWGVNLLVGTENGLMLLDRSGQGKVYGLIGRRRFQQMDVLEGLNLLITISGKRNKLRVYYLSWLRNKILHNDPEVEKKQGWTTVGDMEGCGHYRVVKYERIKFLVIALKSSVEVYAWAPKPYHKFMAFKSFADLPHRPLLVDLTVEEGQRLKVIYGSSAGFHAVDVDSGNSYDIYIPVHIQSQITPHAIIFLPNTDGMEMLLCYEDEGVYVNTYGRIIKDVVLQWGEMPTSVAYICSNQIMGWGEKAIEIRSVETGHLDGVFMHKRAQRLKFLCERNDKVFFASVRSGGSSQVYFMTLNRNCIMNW

[10] = biological target: Mast/stem cell growth factor receptor Kit (Homo sapiens, UniProt P10721); assay type: functional;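 also: KIT entry within a kinase panel assay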
Chain of Mast/stem cell growth factor receptor Kit (P10721 whole entry): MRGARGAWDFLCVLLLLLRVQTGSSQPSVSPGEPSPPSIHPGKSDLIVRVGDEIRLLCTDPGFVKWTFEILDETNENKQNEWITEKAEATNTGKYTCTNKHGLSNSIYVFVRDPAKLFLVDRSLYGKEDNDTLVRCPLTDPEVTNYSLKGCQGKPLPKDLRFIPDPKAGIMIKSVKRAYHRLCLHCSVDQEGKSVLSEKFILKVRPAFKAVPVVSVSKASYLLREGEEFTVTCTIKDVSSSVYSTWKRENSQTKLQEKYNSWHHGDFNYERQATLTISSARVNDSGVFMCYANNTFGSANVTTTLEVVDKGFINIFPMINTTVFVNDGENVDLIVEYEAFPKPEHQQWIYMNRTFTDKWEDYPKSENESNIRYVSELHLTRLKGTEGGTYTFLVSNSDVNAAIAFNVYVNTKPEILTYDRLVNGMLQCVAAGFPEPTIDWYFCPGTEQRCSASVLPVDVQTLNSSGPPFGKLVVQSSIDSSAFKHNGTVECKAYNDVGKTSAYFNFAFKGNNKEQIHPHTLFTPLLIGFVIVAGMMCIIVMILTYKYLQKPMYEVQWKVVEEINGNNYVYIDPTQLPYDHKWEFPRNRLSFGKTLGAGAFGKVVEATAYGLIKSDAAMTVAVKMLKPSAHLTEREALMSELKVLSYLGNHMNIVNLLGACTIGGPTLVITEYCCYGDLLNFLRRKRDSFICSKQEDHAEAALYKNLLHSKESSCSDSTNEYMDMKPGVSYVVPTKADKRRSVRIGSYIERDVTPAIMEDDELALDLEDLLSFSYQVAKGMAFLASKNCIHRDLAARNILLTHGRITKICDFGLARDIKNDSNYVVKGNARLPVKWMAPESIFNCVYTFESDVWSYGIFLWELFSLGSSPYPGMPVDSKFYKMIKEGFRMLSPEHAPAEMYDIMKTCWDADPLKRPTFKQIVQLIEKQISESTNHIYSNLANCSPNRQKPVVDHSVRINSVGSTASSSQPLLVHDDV

Question: Which EC50 [1] does the source give for `CCn1nc(/C=C/c2ccccc2)nc2c(=O)n(C)c(=O)nc1-2` here?
Answer: 0.952 µM (inconclusive)

Question: And the IC50 [2]?
Answer: 2.24 µM (active)

Question: What about the IC50 [3] of the same compound?
Answer: > 73.5 µM (inactive)

Question: With `CC(C)c1ccc(-c2nnn(CCC(=O)O)n2)cc1` as the compound, how does the IC50 [4] read?
Answer: 48.6 µM (active)

Question: And the EC50 [5]?
Answer: < 0.16 µM (active)

Question: What about the AC50 [6] of the same compound?
Answer: 12.6 µM (inconclusive)

Question: For `COc1cc2c(cc1Nc1nc(Nc3cccc(F)c3C(N)=O)c3cc[nH]c3n1)N(C(=O)CN(C)C)CC2`, which Ki [7] is on record?
Answer: > 5.01 µM (inactive)

Question: What about the Ki [8] of the same compound?
Answer: 10 µM (active)

Question: And the Ki [9]?
Answer: 3.98 µM (active)

Question: What about the Ki [10] of the same compound?
Answer: > 1.26 µM (inactive)
